From patent US20240336566A1, “CRYSTALLINE FORMS OF A COMPOUND FOR THE TARGETED DEGRADATION OF THE ANDROGEN RECEPTOR” (Arvinas Operations, Inc., priority 2023, published 2024)
In brackets after ≈: the same amount, converted by molar mass.

Columns and labels:
Format in all cases: physicochemical
[1] = Dynamic vapour sorption (DVS) with XRPD of retained solid
Procedure: 10-20 mg of sample was placed into a mesh vapour sorption balance pan and loaded into a DVS-1 dynamic vapour sorption balance by Surface Measurement Systems. The sample was subjected to a ramping profile from 40-90% relative humidity (RH) at 10% increments, maintaining the sample at each step until a stable weight had been achieved (dm/dt 0.004%, minimum step length 30 minutes, maximum step length 500 minutes) at 25° C. After completion of the sorption cycle, the sample was dried using the same procedure to 0% RH and then a second sorption cycle back to 40% RH. Two cycles were performed. The weight change during the sorption/desorption cycles were plotted, allowing for the hygroscopic nature of the sample to be determined. XRPD analysis was then carried out on any solid retained.

[2] = Competitive slurry experiments of free base Patterns 1, 2 and 6 (XRPD); settings: slurries of Patterns 1, 2 and 6; ambient or 40° C.
Procedure: XRPD analysis of the second set of competitive slurry experiments was carried out on a Philips X'Pert Pro Multipurpose diffractometer equipped with a spinning stage autosampler. The samples were scanned between 5 and 34.997 °2θ using Cu K radiation (α1γ=1.54060 Å; α2=1.54443 Å; β=1.39225 Å; α1:α2 ratio=0.5) running in Bragg-Brentano geometry (step size 0.008 °2θ, step time 10.160 s, rotation period 2 s) using 40 kV/40 mA generator settings. Data were visualized and images generated using the HighScore Plus 4.7 desktop application (PANalytical, 2θ17).
• Eight samples were prepared containing 10 mg of free base Patterns 1, 2, and 6. • The appropriate solvent systems were added and observations were noted. • After shaking at either ambient or 40° C., observations were noted and the samples were filtered centrifugally. The solids obtained were analyzed by XRPD.
• Due to inconclusive results, the solids were returned to the sample vials and 100 μL of the appropriate solvent was added to each sample. The samples were then capped and sealed by parafilm and shaken at ambient or 40° C. as before. • After shaking for 72 hours, the solids were analyzed by XRPD. […]

[3] = Thermodynamic solubility determination in buffers (HPLC)
Text: No clear solubility advantage of the salts was noted over Compound A free base.

[4] = 7-day stability assessment (appearance, HPLC, XRPD)
Procedure: The material was gently ground to release any agglomerates and loaded onto a multi-well plate with Kapton or Mylar polymer film to support the sample. […] Data were visualized and images generated using the HighScore Plus 4.7 desktop application (PANalytical, 2θ17).
They all remained white or off-white solids. • XRPD analysis determined the patterns were retained.

[5] = Heating experiment of Compound A free base Pattern 1 (1H NMR after heating to 250° C.); settings: heated to 250° C. using the TG/DSC
[6] = Buffer pH 1.2, 25° C., cf concentration of free base, listed as Compound A Free Base Pattern 1
[7] = Buffer pH 3.0, 25° C., LOQ 0.00025 mg/mL
[8] = buffer, 25 °C, pH 4, aqueous buffer, thermodynamic from solid, Buffer pH 4.0, LOQ 0.00025 mg/mL
[9] = 7 days at 40° C./75% RH (open vial)
[10] = 7 days at Ambient light (closed vial)

COc1cc(O[C@H]2C(C)(C)[C@H](NC(=O)c3ccc(N4CCC(CN5CCN(c6ccc(C(=O)N[C@H]7CCC(=O)NC7=O)c(F)c6)CC5)CC4)cc3)C2(C)C)ccc1C#N [free base Pattern 1]
DVS hygroscopicity [1]: Slightly hygroscopic | Form change after DVS [1]: No | form by XRPD post DVS [1]: no form change | hygroscopic nature (DVS) ([1]; 25° C.): slightly hygroscopic | mass uptake of water (DVS) ([1]; RH not stated at the place): 1.17 wt. % | mass uptake of water (DVS), equivalents ([1]; RH not stated at the place): 0.53 eq. | DVS water uptake ([1]; at 90% RH): 1.17 wt. % | DVS water uptake (equivalents of water) ([1]; at 90% RH): 0.53 eq. | relative stability of forms (competitive slurry) [2]: thermodynamic form | 0 Hr Solubility [3, 6]: 0.1 µg/mL | 4 Hr Solubility [3, 6]: 26.2 µg/mL | 24 Hr Solubility [3, 6]: 69.3 µg/mL | 0 Hr Solubility [3, 7]: <0.25 µg/mL | 4 Hr Solubility [3, 7]: <0.25 µg/mL | 24 Hr Solubility [3, 7]: <0.25 µg/mL | solubility at 0 h [3, 8]: < 0.25 µg/mL | solubility at 4 h [3, 8]: < 0.25 µg/mL | solubility at 24 h [3, 8]: < 0.25 µg/mL | thermodynamic solubility ([3]; pH 1.2, after 24 hours, 25° C., as concentration of Compound A free base): 69.3 µg/mL (≈ 85.8 µM) | HPLC purity [4, 9]: 99.00 % relative area | XRPD after stability storage [4, 9]: No change | HPLC purity ([4]; 7 days at 40° C./75% RH (open vial), listed as Free base Pattern 1): 99.00 % relative area | HPLC purity ([4]; 7 days at 80° C. (closed vial)): 99.03 % relative area | XRPD after stability storage ([4]; 7 days at 80° C. (closed vial)): No change | HPLC purity ([4]; 7 days at 80° C. (closed vial), listed as Free base Pattern 1): 99.03 % relative area | HPLC purity [4, 10]: 99.07 % relative area | XRPD after stability storage [4, 10]: No change | HPLC purity ([4]; 7 days at Ambient light (closed vial), listed as Free base Pattern 1): 99.07 % relative area | Total impurities (HPLC) ([4]; after 7 days at 40° C./75% RH): 1.00 Rel. Area % | purity retained after stability storage (HPLC) ([4]; after 7 days at 40° C./75% RH (open vial), 80° C. (closed vial), ambient light (closed vial)): > 99 % relative area | Total impurities (HPLC) ([4]; after 7 days at 80° C.): 0.97 Rel. Area % | Total impurities (HPLC) ([4]; after 7 days at ambient): 0.93 Rel. Area % | Total impurities (HPLC) ([4]; before stability testing): 0.99 Rel. Area % | HPLC purity ([4]; before stability testing (condition N/A)): 99.01 % relative area | HPLC purity ([4]; before stability testing (condition N/A), listed as Free base Pattern 1): 99.01 % relative area | degradation after heating (1H NMR) [5]: had not degraded
